Reference: patent publication US9260439B2, “Dihydropyrrolopyrimidine derivatives” (PFIZER INC., priority 2014, dated 2016)

Each molecule was assayed against truncated PI3Kα (p110α/iSH2 p85α) (Homo sapiens (Human), UniProt P42336) (assay: PI3KA_Act fluorescence polarization kinase assay (Ki)). Conditions: 1 mM ATP.
Format: biochemical
How it was run: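 Ki values result from fitting fluorescence polarization signals to the Morrison equation for tight-binding competitive inhibitors. The detector was GST-Grp1 PH domain with TAMRA-PIP3, read after a 30 min room-temperature reaction of 0.5 nM truncated PI3Kα and 30 μM PIP2 at pH 7.4 in HEPES/NaCl/MgCl2/DTT/CHAPS buffer. Compounds were tested as 12-point 3-fold dilutions from 3 μM.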

Chain of truncated PI3Kα (p110α/iSH2 p85α) (P42336 whole entry, the tested form may be a part): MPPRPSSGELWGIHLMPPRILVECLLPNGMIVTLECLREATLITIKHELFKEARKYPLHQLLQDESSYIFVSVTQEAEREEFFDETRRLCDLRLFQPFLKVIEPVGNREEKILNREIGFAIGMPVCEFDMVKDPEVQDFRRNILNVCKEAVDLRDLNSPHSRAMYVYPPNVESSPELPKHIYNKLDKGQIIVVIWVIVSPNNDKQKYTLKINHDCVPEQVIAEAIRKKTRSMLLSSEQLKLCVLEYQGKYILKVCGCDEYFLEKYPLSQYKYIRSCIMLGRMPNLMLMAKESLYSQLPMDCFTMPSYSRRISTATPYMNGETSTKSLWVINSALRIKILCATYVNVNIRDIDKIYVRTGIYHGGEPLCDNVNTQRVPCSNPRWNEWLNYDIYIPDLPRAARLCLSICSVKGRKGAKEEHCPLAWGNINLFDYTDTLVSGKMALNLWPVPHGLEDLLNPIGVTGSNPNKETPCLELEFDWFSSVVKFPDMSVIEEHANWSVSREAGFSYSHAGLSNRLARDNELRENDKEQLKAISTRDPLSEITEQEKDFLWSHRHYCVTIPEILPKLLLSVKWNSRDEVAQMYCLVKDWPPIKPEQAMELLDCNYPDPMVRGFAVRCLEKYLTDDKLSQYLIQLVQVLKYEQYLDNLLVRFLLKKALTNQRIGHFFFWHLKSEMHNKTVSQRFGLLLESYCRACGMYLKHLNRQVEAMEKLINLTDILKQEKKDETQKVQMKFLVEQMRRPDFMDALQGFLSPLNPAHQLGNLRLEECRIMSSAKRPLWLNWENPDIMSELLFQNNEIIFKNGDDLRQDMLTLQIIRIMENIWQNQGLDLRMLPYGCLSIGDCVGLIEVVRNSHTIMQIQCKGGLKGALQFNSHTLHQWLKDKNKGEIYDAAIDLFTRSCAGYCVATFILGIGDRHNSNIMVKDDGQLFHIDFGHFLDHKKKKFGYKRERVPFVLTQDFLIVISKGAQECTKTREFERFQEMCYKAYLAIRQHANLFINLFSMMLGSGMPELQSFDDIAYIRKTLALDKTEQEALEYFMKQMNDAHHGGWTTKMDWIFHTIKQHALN

SMILES	PI3KA_Act Ki [nM]
CC(C)[C@@H](N)C(=O)N1CC[C@H](N2CCc3c(-c4cnc(N)nc4)nc(N4CCOCC4)nc32)C1.Cl [Example 287, (2R)-2-amino-1-{(3S)-3-[4-(2-aminopyrimidin-5-yl)-2-(morpholin-4-yl)-5,6-dihydro-7H-pyrrolo[2,3-d]pyrimidin-7-yl]pyrrolidin-1-yl}-3-methylbutan-1-one hydrochloride]	0.462
CC(C)[C@H](N)C(=O)N1CC[C@](C)(N2CCc3c(-c4cnc(N)nc4)nc(N4CCOCC4)nc32)C1.Cl [Example 288, (2S)-2-amino-1-{(3S)-3-[4-(2-aminopyrimidin-5-yl)-2-(morpholin-4-yl)-5,6-dihydro-7H-pyrrolo[2,3-d]pyrimidin-7-yl]-3-methylpyrrolidin-1-yl}-3-methylbutan-1-one hydrochloride]	0.141
CC(C)(N)C(=O)N1CC[C@@](C)(N2CCc3c(-c4cnc(N)nc4)nc(N4CCOCC4)nc32)C1.Cl [Example 289, 2-amino-1-{(3R)-3-[4-(2-aminopyrimidin-5-yl)-2-(morpholin-4-yl)-5,6-dihydro-7H-pyrrolo[2,3-d]pyrimidin-7-yl]-3-methylpyrrolidin-1-yl}-2-methylpropan-1-one hydrochloride]	0.075
CCC(C)(N)C(=O)N1CC[C@](C)(N2CCc3c(-c4cnc(N)nc4)nc(N4CCOCC4)nc32)C1.Cl (stereo partly drawn) [Example 290, 2-amino-1-{(3S)-3-[4-(2-aminopyrimidin-5-yl)-2-(morpholin-4-yl)-5,6-dihydro-7H-pyrrolo[2,3-d]pyrimidin-7-yl]-3-methylpyrrolidin-1-yl}-2-methylbutan-1-one hydrochloride]	<0.018
C[C@]1(N2CCc3c(-c4cnc(N)nc4)nc(N4CCOCC4)nc32)CCN(C(=O)[C@H](N)CF)C1.Cl [Example 292, (2S)-2-amino-1-{(3S)-3-[4-(2-aminopyrimidin-5-yl)-2-(morpholin-4-yl)-5,6-dihydro-7H-pyrrolo[2,3-d]pyrimidin-7-yl]-3-methylpyrrolidin-1-yl}-3-fluoropropan-1-one hydrochloride]	<0.018
C[C@]1(N2CCc3c(-c4cnc(N)nc4)nc(N4CCOCC4)nc32)CCN(C(=O)[C@@H](N)CF)C1.Cl [Example 293, (2R)-2-amino-1-{(3S)-3-[4-(2-aminopyrimidin-5-yl)-2-(morpholin-4-yl)-5,6-dihydro-7H-pyrrolo[2,3-d]pyrimidin-7-yl]-3-methylpyrrolidin-1-yl}-3-fluoropropan-1-one hydrochloride]	0.086
CC(N)(CF)C(=O)N1CC[C@](C)(N2CCc3c(-c4cnc(N)nc4)nc(N4CCOCC4)nc32)C1.Cl (stereo partly drawn) [Example 294, 2-amino-1-{(3S)-3-[4-(2-aminopyrimidin-5-yl)-2-(morpholin-4-yl)-5,6-dihydro-7H-pyrrolo[2,3-d]pyrimidin-7-yl]-3-methylpyrrolidin-1-yl}-3-fluoro-2-methylpropan-1-one hydrochloride]	<0.018
C[C@]1(N2CCc3c(-c4cnc(N)nc4)nc(N4CCOCC4)nc32)CCN(C(=O)[C@@H](N)C2CC2)C1.Cl [Example 296, (2S)-2-amino-1-{(3S)-3-[4-(2-aminopyrimidin-5-yl)-2-(morpholin-4-yl)-5,6-dihydro-7H-pyrrolo[2,3-d]pyrimidin-7-yl]-3-methylpyrrolidin-1-yl}-2-cyclopropylethanone hydrochloride]	<0.018
C[C@]1(N2CCc3c(-c4cnc(N)nc4)nc(N4CCOCC4)nc32)CCN(C(=O)[C@H](N)C2CC2)C1.Cl [Example 297, (2R)-2-amino-1-{(3S)-3-[4-(2-aminopyrimidin-5-yl)-2-(morpholin-4-yl)-5,6-dihydro-7H-pyrrolo[2,3-d]pyrimidin-7-yl]-3-methylpyrrolidin-1-yl}-2-cyclopropylethanone hydrochloride]	0.019
CNCC(=O)N1CC[C@](C)(N2CCc3c(-c4cnc(N)nc4)nc(N4CCOCC4)nc32)C1 [Example 298, 1-{(3S)-3-[4-(2-aminopyrimidin-5-yl)-2-(morpholin-4-yl)-5,6-dihydro-7H-pyrrolo[2,3-d]pyrimidin-7-yl]-3-methylpyrrolidin-1-yl}-2-(methylamino)ethanone]	<0.018
CN(C)CC(=O)N1CC[C@](C)(N2CCc3c(-c4cnc(N)nc4)nc(N4CCOCC4)nc32)C1 [Example 299, 1-{(3S)-3-[4-(2-aminopyrimidin-5-yl)-2-(morpholin-4-yl)-5,6-dihydro-7H-pyrrolo[2,3-d]pyrimidin-7-yl]-3-methylpyrrolidin-1-yl}-2-(dimethylamino) ethanone]	<0.018
CN(C)CC(=O)N1CC[C@@](C)(N2CCc3c(-c4cnc(N)nc4)nc(N4CCOCC4)nc32)C1 [Example 300, 1-{(3R)-3-[4-(2-aminopyrimidin-5-yl)-2-(morpholin-4-yl)-5,6-dihydro-7H-pyrrolo[2,3-d]pyrimidin-7-yl]-3-methylpyrrolidin-1-yl}-2-(dimethylamino) ethanone]	0.669
C[C@H](C(=O)N1CC[C@](C)(N2CCc3c(-c4cnc(N)nc4)nc(N4CCOCC4)nc32)C1)N(C)C [Example 301, (2R)-1-{(3S)-3-[4-(2-aminopyrimidin-5-yl)-2-(morpholin-4-yl)-5,6-dihydro-7H-pyrrolo[2,3-d]pyrimidin-7-yl]-3-methylpyrrolidin-1-yl}-2-(dimethylamino) propan-1-one]	0.073
CC(C(=O)N1CC[C@](C)(N2CCc3c(-c4cnc(N)nc4)nc(N4CCOCC4)nc32)C1)N(C)C (stereo partly drawn) [Example 302, 1-{(3S)-3-[4-(2-aminopyrimidin-5-yl)-2-(morpholin-4-yl)-5,6-dihydro-7H-pyrrolo[2,3-d]pyrimidin-7-yl]-3-methylpyrrolidin-1-yl}-2-(dimethylamino) propan-1-one]	0.038
CNC(C)(C)C(=O)N1CC[C@](C)(N2CCc3c(-c4cnc(N)nc4)nc(N4CCOCC4)nc32)C1.Cl [Example 303, 1-{(3S)-3-[4-(2-aminopyrimidin-5-yl)-2-(morpholin-4-yl)-5,6-dihydro-7H-pyrrolo[2,3-d]pyrimidin-7-yl]-3-methylpyrrolidin-1-yl}-2-methyl-2-(methylamino) propan-1-one hydrochloride]	0.025
CN(C)C(C)(C)C(=O)N1CC[C@](C)(N2CCc3c(-c4cnc(N)nc4)nc(N4CCOCC4)nc32)C1 [Example 304, 1-{(3S)-3-[4-(2-aminopyrimidin-5-yl)-2-(morpholin-4-yl)-5,6-dihydro-7H-pyrrolo[2,3-d]pyrimidin-7-yl]-3-methylpyrrolidin-1-yl}-2-(dimethylamino)-2-methylpropan-1-one]	<0.018
CC(C)(CN)C(=O)N1CC[C@](C)(N2CCc3c(-c4cnc(N)nc4)nc(N4CCOCC4)nc32)C1.Cl [Example 305, 3-amino-1-{(3S)-3-[4-(2-aminopyrimidin-5-yl)-2-(morpholin-4-yl)-5,6-dihydro-7H-pyrrolo[2,3-d]pyrimidin-7-yl]-3-methylpyrrolidin-1-yl}-2,2-dimethylpropan-1-one hydrochloride]	0.036
